# Laboratory results taken from patent publication US20250255867A1 (Kadmon Corporation, LLC, priority 2022, published 2025).
# Tests used:
# Type in all cases: in vivo, human
# [1] = test system: patients with cGVHD; test: Example 1: corticosteroid and calcineurin inhibitor sparing; settings: for Participants who discontinued CNI, number / Participants who discontinued CNI, percent / Participants with reduction in CNI dose, number / Participants with reduction in CNI dose, percent: baseline up to EOT
# Experimental: Corticosteroid sparing. […] The mean corticosteroid dose was reduced by 45%. The median time to corticosteroid therapy discontinuation was 29 weeks (range, 8-77 weeks).
# Change from Baseline in Corticosteroids Dose. An EOT visit was performed within 3 days after the participant's last dose of study drug. Baseline value was defined as valid and last non-missing value obtained within 28 days prior to participant receiving first study medication. The mITT population was analyzed, with the ‘overall number of participants analyzed’=participants with available data for this outcome measure.
# Change from Baseline in Calcineurin Inhibitor (CNI). Calcineurin inhibitors included systemic tacrolimus and cyclosporine. Number of participants who took CNI at Baseline and had reduction and discontinuation in CNI use as compared to Baseline during the study are reported in this outcome measure. EOT visit was performed within 3 days after the participant's last dose of study drug. Baseline value was defined as valid and last non-missing value obtained within 28 days prior to participant receiving first study medication.
# [2] = test system: subjects with BOS; test: Example 3 combined analysis: lung-specific NIH response in BOS
# Experimental: Subjects enrolled in the clinical studies described in Examples 1 and 2 served as the population for the combined analysis.
# Patients with BOS were identified as: 1) % predicted forced expiratory volume in 1 second (% FEV1) of £79% at enrollment, and 2) clinician attribution of lung disease due to cGVHD.
# In Example 1, lung function assessments were conducted at baseline and on Day 1 of each cycle for patients with suspected of known lung involvement. In Example 2, lung function assessments were conducted at baseline and at the time of response assessments: Day 1 of cycles 2-5 and then on Day 1 of every other cycle thereafter.
# The severity of cGVHD was graded according to the 2014 NIH Consensus Criteria. […] According to these criteria, a complete response (CR) in the lung is defined as normal % FEV1 after previous involvement or in the absence of PFTs, a NIH lung Symptom Score of 0 after previous involvement. Partial response (PR) in the lung is defined as an increase by 10% predicted absolute value of % FEV1 or in the absence of PFTs, a decrease in NIH Lung Symptom Score by 1 or more points. Progression of lung disease is defined as a decrease by 10% predicted absolute value of % FEV1 or in the absence of PFTs, an increase in NIH Lung Symptom Score by 1 or more points, except 0 to 1.
# Baseline characteristics were reported descriptively. Univariable and multivariable logistic regression analysis was performed to investigate clinical factors (listed in Table 1) that were associated with NIH lung response. Correlation analysis was performed to assess correlation among lung response metrics. All testing was two-sided at the significance level of 0.05. All analyses were performed using SAS 9.3 (SAS Institute Inc., Cary, NC), and R v3.5.2 (the CRAN project).
# [3] = test system: patients with cGVHD; test: Example 1: Lee cGVHD Symptom Scale (LSS)
# Experimental: All responses were assessed by the investigators.
# QOL assessment. […] Thirty-five percent of all patients (37% of responders and 32% of nonresponders) reported a clinically meaningful improvement in LSS score on consecutive assessments.
# Change From Baseline in Overall Score on Lee cGvHD Symptom Scale at Specified Time Points. Lee cGVHD symptom scale, a patient-reported symptom scale used to measure symptom burden and has 7 subscales (Skin, Eyes and Mouth, Breathing, Eating and Digestion, Muscles and Joints, Energy, and Mental and Emotional) with ratings as follows: 0—Not at all, 1—Slightly, 2—Moderately, 3—Quite a bit, 4—Extremely, with lower values representing better outcome. Score for each subscale was normalized to a score ranged from 0 to 100, where higher score-worse symptoms. An overall score was calculated as average of these 7 subscales. EOT visit was performed within 3 days after the participant's last dose of study drug. Baseline value was defined as valid and last non-missing value obtained within 28 days prior to participant receiving first study medication. […] Analysis was performed on mITT population. Here, ‘number analyzed’=participants with available data for each specified category. Here, ‘0’ in the number analyzed field signifies that none of the participants were available for the analysis at the specified time points.
# [4] = Total N=54, listed as belumosudil
# [5] = NIH Lung Score at baseline 1, 30 subjects
# [6] = NIH Lung Score at baseline 2, 23 subjects
# [7] = NIH Lung Score at baseline 3, 6 subjects
structure (smiles),measurement,setting,value
"CC(C)NC(=O)COc1cccc(-c2nc(Nc3ccc4[nH]ncc4c3)c3ccccc3n2)c1 [Belumosudil, 2-{3-[4-(1H-indazol-5-ylamino)-2-quinazolinyl]phenoxy}-N-(propan-2-yl) acetamide]",CS discontinuation,[1]; Cohort 1 200 mg QD,"4 (24, 7 to 50) %"
same,"Mean percent change in CS dose from baseline, nonresponder",[1]; Cohort 1 200 mg QD,−26%
same,"Mean percent change in CS dose from baseline, overall",[1]; Cohort 1 200 mg QD,−50%
same,"Mean percent change in CS dose from baseline, responder",[1]; Cohort 1 200 mg QD,−63%
same,Proportion with CS reduction,[1]; Cohort 1 200 mg QD,"13 (76, 50 to %"
same,"Change From Baseline in Corticosteroids Dose, Mean (Standard Deviation)","[1]; Cohort 1 200 mg QD, baseline to end of treatment",−0.110 (0.101) milligrams per kilogram per day
same,"Participants who discontinued CNI, number",[1]; Cohort 1: 200 mg QD,0
same,"Participants who discontinued CNI, percent",[1]; Cohort 1: 200 mg QD,(0%)
same,"Participants with reduction in CNI dose, number",[1]; Cohort 1: 200 mg QD,5
same,"Participants with reduction in CNI dose, percent",[1]; Cohort 1: 200 mg QD,(83%)
same,CS discontinuation,[1]; Cohort 2 200 mg BID,"2 (13, 2 to 38) %"
same,"Mean percent change in CS dose from baseline, nonresponder",[1]; Cohort 2 200 mg BID,−37%
same,"Mean percent change in CS dose from baseline, overall",[1]; Cohort 2 200 mg BID,−36%
same,"Mean percent change in CS dose from baseline, responder",[1]; Cohort 2 200 mg BID,−36%
same,Proportion with CS reduction,[1]; Cohort 2 200 mg BID,"9 (56, 30 to 80) %"
same,"Participants who discontinued CNI, number",[1]; Cohort 2: 200 mg BID,1
same,"Participants who discontinued CNI, percent",[1]; Cohort 2: 200 mg BID,17%
same,"Participants with reduction in CNI dose, number",[1]; Cohort 2: 200 mg BID,5
same,"Participants with reduction in CNI dose, percent",[1]; Cohort 2: 200 mg BID,83%
same,CS discontinuation,[1]; Cohort 3 400 mg QD,"4 (19, 5 to 42) %"
same,"Mean percent change in CS dose from baseline, nonresponder",[1]; Cohort 3 400 mg QD,−19%
same,"Mean percent change in CS dose from baseline, overall",[1]; Cohort 3 400 mg QD,−47%
same,"Mean percent change in CS dose from baseline, responder",[1]; Cohort 3 400 mg QD,−63%
same,Proportion with CS reduction,[1]; Cohort 3 400 mg QD,"14 (67, 43 to %"
same,"Participants who discontinued CNI, number",[1]; Cohort 3: 400 mg QD,3
same,"Participants who discontinued CNI, percent",[1]; Cohort 3: 400 mg QD,27%
same,"Participants with reduction in CNI dose, number",[1]; Cohort 3: 400 mg QD,6
same,"Participants with reduction in CNI dose, percent",[1]; Cohort 3: 400 mg QD,55%
same,"Mean percent change in CS dose from baseline, nonresponder",[1]; Total,−26%
same,"Mean percent change in CS dose from baseline, overall",[1]; Total,−45%
same,"Mean percent change in CS dose from baseline, responder",[1]; Total,−55%
same,CS discontinuation,[1]; Total N=54,Approximately 20%
same,CS discontinuation,"[1]; Total N=54, listed as KD025","10 (19, 9 to 31) %"
same,Proportion with CS reduction,"[1]; Total N=54, listed as KD025","36 (67, 53 to %"
same,CS discontinuation,[1]; [4],19%
same,Proportion with CS reduction,[1]; [4],67%
same,Mean corticosteroid dose reduction,[1]; all patients,45%
same,Mean corticosteroid dose reduction,[1]; nonresponders,26%
same,Median time to corticosteroid therapy discontinuation,"[1]; range, 8-77 weeks",29 weeks
same,Mean corticosteroid dose reduction,[1]; responders,55%
same,"Best ORR for pulmonary cGVHD, NIH response criteria",[2]; 59 subjects,32%
same,"PR for pulmonary cGVHD, NIH response criteria",[2]; 59 subjects,17%
same,"Lung-specific NIH response, Best ORR",[2]; [5],50%
same,"Lung-specific NIH response, CR rate",[2]; [5],27%
same,"Lung-specific NIH response, PR rate",[2]; [5],23%
same,"Lung-specific NIH response, Best ORR",[2]; [6],17%
same,"Lung-specific NIH response, CR rate",[2]; [6],4%
same,"Lung-specific NIH response, PR rate",[2]; [6],13%
same,"Lung-specific NIH response, Best ORR",[2]; [7],0%
same,"Lung-specific NIH response, CR rate",[2]; [7],0%
same,"Lung-specific NIH response, PR rate",[2]; [7],0%
same,"Lung-specific NIH response, Best ORR","[2]; Total, 59 subjects",32%
same,"Lung-specific NIH response, CR rate","[2]; Total, 59 subjects",15%
same,"Lung-specific NIH response, PR rate","[2]; Total, 59 subjects",17%
same,Best lung ORR,[2]; baseline NIH lung score 1,50%
same,Lung CR,[2]; baseline NIH lung score 1,27%
same,Lung PR,[2]; baseline NIH lung score 1,23%
same,Best lung ORR,[2]; baseline NIH lung score 2,17%
same,Lung CR,[2]; baseline NIH lung score 2,4%
same,Lung PR,[2]; baseline NIH lung score 2,13%
same,"Best ORR for lung cGVHD, NIH response with PFTs alone",[2]; in vivo,24%
same,"CR for lung cGVHD, PFTs alone",[2]; in vivo,10%
same,"PR for lung cGVHD, PFTs alone",[2]; in vivo,14%
same,Median time to first NIH lung response,"[2]; range, 3-39",5 cycles
same,Median time to best NIH lung response,"[2]; range, 3-41",7 cycles
same,"Clinically significant improvement (LSS), nonresponder",[3]; Cohort 1 200 mg QD,"1/6 (17, 0.4 to %"
same,"Clinically significant improvement (LSS), responder",[3]; Cohort 1 200 mg QD,"8/11 (73, 39 to %"
same,"Clinically significant improvement (LSS), overall","[3]; Cohort 1 200 mg QD, decrease ≥7 points","9 (53, 28 to 77) %"
same,"Clinically significant improvement (LSS), nonresponder",[3]; Cohort 2 200 mg BID,"4/5 (80, 28 to %"
same,"Clinically significant improvement (LSS), overall",[3]; Cohort 2 200 mg BID,"7 (44, 20 to 70) %"
same,"Clinically significant improvement (LSS), responder",[3]; Cohort 2 200 mg BID,"3/11 (27, 6 to %"
same,"Clinically significant improvement (LSS), nonresponder",[3]; Cohort 3 400 mg QD,"2/8 (25, 3 to %"
same,"Clinically significant improvement (LSS), overall",[3]; Cohort 3 400 mg QD,"11 (52, 30 to %"
same,"Clinically significant improvement (LSS), responder",[3]; Cohort 3 400 mg QD,"9/13 (69, 39 to %"
same,"Clinically significant improvement (LSS), nonresponder",[3]; Total,"7/19 (37, 16 to %"
same,"Clinically significant improvement (LSS), responder",[3]; Total,"20/35 (57, 39 to %"
same,"Clinically significant improvement (LSS), overall","[3]; Total N=54, listed as KD025","27 (50, 36 to %"
same,"Clinically significant improvement (LSS), overall",[3]; [4],50%
